Results reported in publication PMC6591251, “Discovery of potent necroptosis inhibitors targeting RIPK1 kinase activity for the treatment of inflammatory disorder and cancer metastasis” (Cell Death & Disease, 2019).
Entries after “also recorded” stand apart in the source; their conditions may differ.

Tests used:
human and mouse cells = assay: RIPK1-dependent necroptosis (abstract summary); format: cell-based; conditions: read-out: EC50, inhibition of RIPK1-dependent necroptosis
From the text: Necroptosis is a form of regulated necrosis controlled by receptor-interacting kinase 1 (RIPK1 or RIP1), RIPK3 (RIP3), and pseudokinase mixed lineage kinase domain-like protein (MLKL). […] Herein, we discovered the small-molecule PK6 and its derivatives as a novel class of necroptosis inhibitors that directly block the kinase activity of RIPK1. […] PK68 efficiently blocks cellular activation of RIPK1, RIPK3, and MLKL upon necroptosis stimuli. […] Importantly, PK68 provides strong protection against TNF-α-induced systemic inflammatory response syndrome in vivo.

RFP-LL/2 cells = assay: Early metastasis/extravasation of tumor cells, 6 h after injection; format: in vivo, C57BL/6 mice; conditions: 5 mg/kg ip
Description: Studies have shown that RIPK1 kinase activity is involved in the promotion of tumor metastasis through death receptor 6-dependent necroptosis of endothelial cells[22] or VEGF-dependent activation of vascular permeability. We thus evaluated the therapeutic effect of PK68 on lung metastasis of mouse melanoma B16-F10 cells in vivo. […] After 2 weeks, the metastasis of B16-F10 cells was measured by histological analysis and assessed as the number of metastasis nodules in the lung. […] Two weeks after intravenous injection of RFP-LL/2 cells, RFP^+ LL/2 cells were isolated from the tumor tissues by flow cytometer sorting and no signal of phosphorylated RIPK1 was detected in these tumors cells (Supplementary Fig. 22). […] Further, we evaluated the effect of PK68 on the tumor cell transmigration across the cultured endothelium. […]
Melanoma B16-F10 cells (0.5 × 10^6 cells) or RFP-labeled lung carcinoma LL/2 cells (0.3 × 10^6 cells) were injected into C57BL/6 mice in a volume of 200 μl PBS via the tail intravenous injection. […] The lung metastasis of B16-F10 cells in mice was determined by accounting the number of metastasis nodules with a dissecting microscope (Leica) and histologic analysis. The lung metastasis of LL/2 cells in mice was analyzed by measuring RFP fluorescence intensities with the PerkinElmer IVIS Lumina II. […]

P38g = biological target: T1, P38g (Homo sapiens, UniProt P53778); assay: RBC kinase panel; format: biochemical; conditions: ATP 10 μM, Data1, Data2
T1 construct: purchased Reaction Biology Corporation
T1 sequence (P53778 whole entry): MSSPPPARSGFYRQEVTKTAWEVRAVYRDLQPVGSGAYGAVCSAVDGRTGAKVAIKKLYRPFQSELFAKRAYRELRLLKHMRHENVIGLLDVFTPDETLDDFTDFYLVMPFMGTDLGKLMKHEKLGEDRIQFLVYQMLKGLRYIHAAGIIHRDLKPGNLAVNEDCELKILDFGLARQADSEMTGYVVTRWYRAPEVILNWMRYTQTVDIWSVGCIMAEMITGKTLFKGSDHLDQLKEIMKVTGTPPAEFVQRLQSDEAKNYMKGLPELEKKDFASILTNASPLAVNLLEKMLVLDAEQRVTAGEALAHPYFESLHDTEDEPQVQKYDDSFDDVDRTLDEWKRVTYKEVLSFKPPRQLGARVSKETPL
Description: (§1) PK68 was tested at 1 μM in duplicate against a panel of 369 human kinases at Reaction Biology Corporation. Results are viewed in the human kinome phylogenetic tree.
(§2) ^a Compound PK68 was tested at 1 μM in duplicate against 369 kinases using the RBC kinase panel service of Reaction Biology Corporation. All the ATP concentrations used were 10 μM. […] Full protocol details are available at http://www.reactionbiology.com.

PYK2 = biological target: T2, PYK2 (Homo sapiens, UniProt Q14289); assay: RBC kinase panel; format: biochemical; conditions: ATP 10 μM, Data1, Data2
T2 construct: purchased Reaction Biology Corporation
T2 sequence (Q14289 whole entry): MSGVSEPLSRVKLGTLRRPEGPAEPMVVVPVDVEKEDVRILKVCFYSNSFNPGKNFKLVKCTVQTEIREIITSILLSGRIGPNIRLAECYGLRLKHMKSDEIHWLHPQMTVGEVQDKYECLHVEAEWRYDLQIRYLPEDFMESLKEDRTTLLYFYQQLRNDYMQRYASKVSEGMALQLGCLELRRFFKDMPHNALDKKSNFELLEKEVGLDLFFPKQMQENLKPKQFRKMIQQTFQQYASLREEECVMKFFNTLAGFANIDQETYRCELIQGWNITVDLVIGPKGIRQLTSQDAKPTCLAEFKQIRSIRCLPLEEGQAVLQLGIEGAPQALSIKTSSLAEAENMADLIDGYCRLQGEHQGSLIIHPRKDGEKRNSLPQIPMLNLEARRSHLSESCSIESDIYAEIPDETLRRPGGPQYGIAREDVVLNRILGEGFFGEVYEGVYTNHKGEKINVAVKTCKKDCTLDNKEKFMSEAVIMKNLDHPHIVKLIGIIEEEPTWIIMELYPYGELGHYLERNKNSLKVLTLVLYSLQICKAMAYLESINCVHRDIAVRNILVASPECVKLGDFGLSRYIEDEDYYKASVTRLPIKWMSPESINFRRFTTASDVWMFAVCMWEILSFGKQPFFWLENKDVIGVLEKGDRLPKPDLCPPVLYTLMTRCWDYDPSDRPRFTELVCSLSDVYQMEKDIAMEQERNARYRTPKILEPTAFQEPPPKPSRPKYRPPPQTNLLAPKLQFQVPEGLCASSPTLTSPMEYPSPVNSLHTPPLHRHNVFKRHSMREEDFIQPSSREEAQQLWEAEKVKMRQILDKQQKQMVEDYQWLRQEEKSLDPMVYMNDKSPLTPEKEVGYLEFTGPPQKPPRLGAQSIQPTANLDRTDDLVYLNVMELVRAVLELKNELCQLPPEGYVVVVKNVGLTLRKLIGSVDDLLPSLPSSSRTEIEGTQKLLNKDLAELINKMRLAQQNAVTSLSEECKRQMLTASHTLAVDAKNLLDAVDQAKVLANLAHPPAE
Description: as §1, §2

PKG2/PRKG2 = biological target: T3, PKG2/PRKG2 (Homo sapiens, UniProt Q13237); assay: RBC kinase panel; format: biochemical; conditions: ATP 10 μM, Data1, Data2
T3 construct: purchased Reaction Biology Corporation
T3 sequence (Q13237 whole entry): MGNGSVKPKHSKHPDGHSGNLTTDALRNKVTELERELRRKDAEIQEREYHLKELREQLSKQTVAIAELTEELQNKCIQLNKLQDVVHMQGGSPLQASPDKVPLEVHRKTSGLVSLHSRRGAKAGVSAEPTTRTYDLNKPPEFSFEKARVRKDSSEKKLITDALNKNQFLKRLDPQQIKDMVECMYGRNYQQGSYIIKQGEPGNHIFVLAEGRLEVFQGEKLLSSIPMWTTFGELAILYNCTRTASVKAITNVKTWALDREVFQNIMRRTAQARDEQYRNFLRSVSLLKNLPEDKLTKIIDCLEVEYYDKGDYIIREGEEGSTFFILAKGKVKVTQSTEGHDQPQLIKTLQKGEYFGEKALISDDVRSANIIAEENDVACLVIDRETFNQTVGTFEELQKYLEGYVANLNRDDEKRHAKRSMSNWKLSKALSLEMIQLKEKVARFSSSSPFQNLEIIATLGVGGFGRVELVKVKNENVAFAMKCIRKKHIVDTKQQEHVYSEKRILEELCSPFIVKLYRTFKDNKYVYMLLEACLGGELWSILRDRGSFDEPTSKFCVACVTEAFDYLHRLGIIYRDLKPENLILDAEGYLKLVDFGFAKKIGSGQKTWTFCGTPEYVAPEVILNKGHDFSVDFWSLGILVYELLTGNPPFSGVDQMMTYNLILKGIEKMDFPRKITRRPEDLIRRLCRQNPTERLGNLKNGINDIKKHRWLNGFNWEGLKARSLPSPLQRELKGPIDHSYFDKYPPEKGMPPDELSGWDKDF
Description: as §1, §2

BTK = biological target: T4, BTK (Homo sapiens, UniProt Q06187); assay: RBC kinase panel; format: biochemical; conditions: ATP 10 μM, Data1, Data2
T4 construct: purchased Reaction Biology Corporation
T4 sequence (Q06187 whole entry): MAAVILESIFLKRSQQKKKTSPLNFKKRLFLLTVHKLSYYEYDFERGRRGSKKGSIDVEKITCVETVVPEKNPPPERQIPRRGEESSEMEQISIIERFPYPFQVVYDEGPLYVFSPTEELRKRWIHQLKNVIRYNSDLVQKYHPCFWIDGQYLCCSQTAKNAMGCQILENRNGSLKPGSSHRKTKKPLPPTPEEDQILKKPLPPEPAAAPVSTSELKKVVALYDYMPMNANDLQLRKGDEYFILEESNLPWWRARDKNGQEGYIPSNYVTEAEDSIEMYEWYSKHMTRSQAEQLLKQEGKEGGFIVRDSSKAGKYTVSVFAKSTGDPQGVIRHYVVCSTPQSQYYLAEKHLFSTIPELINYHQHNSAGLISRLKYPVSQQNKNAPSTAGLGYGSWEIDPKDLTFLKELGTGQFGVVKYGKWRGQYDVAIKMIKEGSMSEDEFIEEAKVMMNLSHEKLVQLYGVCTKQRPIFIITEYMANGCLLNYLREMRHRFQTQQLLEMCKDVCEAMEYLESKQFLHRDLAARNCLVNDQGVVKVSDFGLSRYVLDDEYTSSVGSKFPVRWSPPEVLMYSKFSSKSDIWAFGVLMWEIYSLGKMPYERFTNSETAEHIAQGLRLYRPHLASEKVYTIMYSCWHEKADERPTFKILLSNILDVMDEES
Description: as §1, §2

RON/MST1R = biological target: T5, RON/MST1R (Homo sapiens, UniProt Q04912); assay: RBC kinase panel; format: biochemical; conditions: ATP 10 μM, Data1, Data2
T5 construct: purchased Reaction Biology Corporation
T5 sequence (Q04912 25-1400): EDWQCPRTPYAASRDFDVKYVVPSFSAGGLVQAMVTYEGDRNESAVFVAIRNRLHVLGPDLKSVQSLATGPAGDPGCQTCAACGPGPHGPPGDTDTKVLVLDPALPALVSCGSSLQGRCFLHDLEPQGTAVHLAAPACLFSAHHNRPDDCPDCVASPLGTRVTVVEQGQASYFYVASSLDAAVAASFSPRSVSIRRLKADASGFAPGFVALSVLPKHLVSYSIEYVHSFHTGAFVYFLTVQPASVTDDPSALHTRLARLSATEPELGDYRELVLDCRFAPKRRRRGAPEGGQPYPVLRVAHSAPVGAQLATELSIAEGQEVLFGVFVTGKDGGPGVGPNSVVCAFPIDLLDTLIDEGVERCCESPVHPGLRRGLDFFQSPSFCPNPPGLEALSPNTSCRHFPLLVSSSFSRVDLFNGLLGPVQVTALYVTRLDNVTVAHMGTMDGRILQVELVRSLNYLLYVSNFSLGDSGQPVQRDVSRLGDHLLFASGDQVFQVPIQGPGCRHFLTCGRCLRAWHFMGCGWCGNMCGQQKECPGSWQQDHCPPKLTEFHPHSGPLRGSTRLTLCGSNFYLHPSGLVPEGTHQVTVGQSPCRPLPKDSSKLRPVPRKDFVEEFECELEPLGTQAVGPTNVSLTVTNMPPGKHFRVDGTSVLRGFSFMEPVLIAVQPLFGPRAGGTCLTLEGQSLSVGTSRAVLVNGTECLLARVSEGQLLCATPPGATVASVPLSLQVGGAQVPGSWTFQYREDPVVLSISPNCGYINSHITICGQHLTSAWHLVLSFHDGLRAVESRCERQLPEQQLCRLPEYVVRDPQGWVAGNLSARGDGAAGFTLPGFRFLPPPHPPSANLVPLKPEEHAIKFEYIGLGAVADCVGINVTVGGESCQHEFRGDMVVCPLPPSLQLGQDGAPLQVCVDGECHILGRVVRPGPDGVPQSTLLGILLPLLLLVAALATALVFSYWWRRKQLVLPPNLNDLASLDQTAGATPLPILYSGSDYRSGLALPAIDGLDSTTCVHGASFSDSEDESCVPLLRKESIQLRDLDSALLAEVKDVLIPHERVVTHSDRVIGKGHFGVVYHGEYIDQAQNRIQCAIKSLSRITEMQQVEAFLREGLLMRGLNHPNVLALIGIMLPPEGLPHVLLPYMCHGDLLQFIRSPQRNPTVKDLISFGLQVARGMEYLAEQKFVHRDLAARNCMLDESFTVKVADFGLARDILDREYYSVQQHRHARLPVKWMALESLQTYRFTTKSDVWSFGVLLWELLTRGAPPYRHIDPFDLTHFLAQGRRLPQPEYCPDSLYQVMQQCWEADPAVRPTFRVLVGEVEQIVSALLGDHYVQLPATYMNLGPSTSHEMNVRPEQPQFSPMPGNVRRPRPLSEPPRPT
Description: as §1, §2

[1] = 14-day preliminary toxicity, daily oral gavage; format: in vivo, C57BL/6 mice
Description: Data represent mean value ± standard deviation. b Plasma pharmacokinetic parameters of PO and IV. c, d C57BL/6 mice (n = 5) were treated with the indicated daily oral gavage dosing of PK68 for successive 14 days. Body weight (c) and hematoxylin-eosin (H&E) staining (d) of mice were analyzed. Control mice received an equal amount of vehicle. Magnification: ×40. Data represent mean value ± standard deviation TEXT PRINTED IN THE PICTURE: (b) no label printed: Tmax (hr): 0.5 (PO (Gavage)); Cmax (ng/mL): 2423 (PO (Gavage)); AUC0-24 (ng/mL*hr): 4821 (PO (Gavage)); AUC0-24 (ng/mL*hr): 1588 (IV (Bolus)); AUCINF (ng/mL*hr): 4897 (PO (Gavage)); AUCINF (ng/mL*hr): 1590 (IV (Bolus)); t1/2 (hr): 1.3 (PO (Gavage)); t1/2 (hr): 1.0 (IV (Bolus)); MRT (hr): 1.8 (PO (Gavage)); MRT (hr): 0.8 (IV (Bolus)); CL (mL/hr/kg): 1258 (IV (Bolus)); CL (mL/min/kg): 21 (IV (Bolus)); Vss (mL/kg): 1009 (IV (Bolus)); Vss (L/kg): 1.0 (IV (Bolus)); F(%): 61 (PO (Gavage)) DOUBTS OF THE COPYIST ABOUT THIS PICTURE: Panel b prints no substance label with the PK table. The name PK68 is printed only in panels c and d, so the label is left empty.
Judging by the PK time curve, the observed plasma levels of PK68 were above its EC50 over a period of 8 h. […] These doses were meant to determine the preliminary toxicity effects of PK68 (Fig. 6c). […] We further performed histology of various tissues from mice that had received 14-day treatment of PK68.

[2] = 5 and 25 mg/kg, daily oral gavage, 14 days

## CC(=O)Nc1nc2ccc(-c3cnc(C)c(NC(=O)OC4CCCCC4)c3)cc2s1 [PK68, cyclohexyl (5-(2-acetamidobenzo[d]thiazol-6-yl)-2-methylpyridin-3-yl)carbamate]
Human and mouse cells
  EC50: 14 to 22 nM
RFP-LL/2 cells
  number of RFP-LL/2 cells in the lung 6 h after injection: decreased number
P38g; 1 μM
  Activity%: 105.38%
P38g
  activity at 1 µM: 109%
PYK2; 1 μM
  Activity%: 95.64%
PYK2
  activity at 1 µM: 95.9%
PKG2/PRKG2; 1 μM
  Activity%: 106.03%
PKG2/PRKG2
  activity at 1 µM: 108%
BTK; 1 μM
  Activity%: 90.38%
BTK
  activity at 1 µM: 91.2%
RON/MST1R; 1 μM
  Activity%: 99.01%
RON/MST1R
  activity at 1 µM: 99.6%
[1]; [2]
  body weight and behavior: normal body weight and behavior
  tolerability: well tolerated
[1]; 14-day course, 25 mg/kg
  toxicity in mice: no obvious toxicity; also recorded: no detectable toxicity
[1]; 14-day treatment
  histology of lung, liver, and heart: normal morphology
